# Reference: PubChem BioAssay AID1918996 (Molecular Pharmacology Branch, DTP, NCI, 2023)
# Test system: 349418-098-R-PDC complex spheroid growth
# Assay: Anticancer human tumor 349418-098-R-PDC patient-derived lung adenocarcinoma cell line growth inhibition [AhR]
# Details: for IC50: curve of first compound; for viability, T/C: stronger effect = lower value
# Description: Multicellular complex tumor spheroid response to aryl hydrocarbon receptor antagonists in combination with a variety of drugs and investigational agents in selected tumor cell lines
# The current study was undertaken to assess response to aryl hydrocarbon receptor antagonists in combination with standard-of-care drugs and investigational agents in solid tumor complex spheroid models. Complex spheroids include a stromal component modeled by human endothelial cells (HUVEC) and fibroblasts modeled by human mesenchymal stem cells (MSCs). The concentration ranges selected for each drug and investigational agent were based upon clinically achievable concentrations if the clinical Cmax of the agent was known.
# Compounds. The drugs and investigational agents: BAY 2416964 (NSC825713), GNF351 (NSC835774), CH-223191 (NSC835775), CPI-455 (NSC825282), aza-TdCyd (NSC777586), decitabine (NSC127716), belinostat (NSC758774), entinostat (NSC756642), pevonedistat (NSC761192), tazemetostat (NSC777109), talazoparib (NSC765396), olaparib (NSC753686), selinexor (NSC780203), nedisertib (M3814, NSC802822), bortezomib (NSC756655), venetoclax (NSC766270), doxorubicin (NSC123127), elimusertib (BAY189344, NSC800525), ceralasertib (AZD6738, NSC777638), TAK-243 (NSC785004), alisertib (NSC759677), etoposide (NSC141540), topotecan (NSC609699), eribulin (NSC707389), gemcitabine (NSC613327), carboplatin (NSC241240), cisplatin (NSC119875), and SN-38 (NSC673596) were obtained from the National Cancer Institute (NCI) Developmental Therapeutics Program Chemical Repository (32). The FDA-approved anticancer drug set is available from the Developmental Therapeutics Program at https://dtp.cancer.gov/organization/dscb/obtaining/available plates.htm. […] The stock solutions were prepared in dimethyl sulfoxide (DMSO, Sigma-Aldrich, St. Louis, MO, cat. D2650), except for the platinum compounds which were prepared in saline (Quality Biological, Gaithersburg, MD, cat. 114-055-101), at 800-fold the tested concentration and stored at -70 degrees C prior to their use. All drugs and investigational agents were tested over a range starting from a high concentration at or near the clinical Cmax and decreasing in half-log increments. If the clinical Cmax for an agent had not been determined, the highest concentration tested was 10 microM (Table 1).
# Cell Culture. All cells were maintained in an incubator at 37 degrees C and 5% CO2 with 95% humidity. The PDC lines were cultured according to standard operating procedures established by the NCI PDMR (https://pdmr.cancer.gov). Briefly, all PDCs were thawed and cultured in Matrigel-coated flasks prepared with a working solution of 1X Ham's F-12 nutrient mix, without supplementation (Invitrogen, Waltham, MA, cat. 11765054), 100 U/mL penicillin-streptomycin (Invitrogen, cat. 15140122), and 2.5% Matrigel (Corning Inc., Corning, NY, cat. 354248) for the first three passages. All PDCs were cultured in complete DMEM/F-12 media containing advanced DMEM/F-12 (Invitrogen, cat. 12634028), 4.9% defined fetal bovine serum, heat inactivated (HyClone Laboratories Inc., Logan, UT, cat. SH30070.03HI), 389 ng/mL hydrocortisone (Sigma-Aldrich, cat. H4001), 9.7 ng/mL human EGF recombinant protein (Invitrogen, cat. PHG0313), 23.4 microg/mL adenine (Sigma-Aldrich, cat. A2786), 97.3 U/mL penicillin-streptomycin (Invitrogen, cat. 15140122), 1.9 mM L-glutamine (Invitrogen, cat. 25030081), and 9.7 microM Y-27632 dihydrochloride (Tocris Bioscience, Bristol, United Kingdom, cat. 1254). The PDCs were cultured in complete DMEM/F12 media without 10 microM Y-27632 dihydrochloride for at least two passages prior to the screen. The established cell lines NCI-H1341 and […] were cultured in DMEM/F-12, HEPES (Invitrogen, cat. 11330032), 5% defined fetal bovine serum (HyClone Laboratories Inc., cat. SH30070.03), ITS premix universal culture supplement [insulin (5 microg/mL), transferrin (5 microg/mL), and selenious acid (5 ng/mL)] […]
# 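Also: spheroids exposed to agents for seven days before luminescence viability read.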
# 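For viability, T/C in this document: spheroids also contain HUVEC endothelial cells and human MSC stroma.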
structure (smiles),measurement,setting,value
CC(C)CC(NC(=O)C(Cc1ccccc1)NC(=O)c1cnccn1)B(O)O (stereo not given) + CC(CO)NC(=O)c1cc(-c2ccc(Cl)cc2)nn(-c2cnn(C)c2)c1=O,IC50,second compound 0.1 µM,< 0.000949 µM
same,IC50,second compound 0.316 µM,< 0.000949 µM
same,IC50,second compound 1 µM,< 0.000949 µM
same,IC50,second compound 3.16 µM,< 0.000949 µM
same,IC50,second compound 10 µM,< 0.000949 µM
same,"viability, T/C","second compound 0.1 µM, first compound 0.000949 µM",23.1%
same,"viability, T/C","second compound 0.1 µM, first compound 0.003 µM",6.06%
same,"viability, T/C","second compound 0.1 µM, first compound 0.00949 µM",3.66%
same,"viability, T/C","second compound 0.1 µM, first compound 0.03 µM",2.47%
same,"viability, T/C","second compound 0.1 µM, first compound 0.0949 µM",2.75%
same,"viability, T/C","second compound 0.1 µM, first compound 0.3 µM",1.27%
same,"viability, T/C","second compound 0.316 µM, first compound 0.000949 µM",24.2%
same,"viability, T/C","second compound 0.316 µM, first compound 0.003 µM",6.19%
same,"viability, T/C","second compound 0.316 µM, first compound 0.00949 µM",4.09%
same,"viability, T/C","second compound 0.316 µM, first compound 0.03 µM",1.94%
same,"viability, T/C","second compound 0.316 µM, first compound 0.0949 µM",2.38%
same,"viability, T/C","second compound 0.316 µM, first compound 0.3 µM",1.96%
same,"viability, T/C","second compound 1 µM, first compound 0.000949 µM",22.5%
same,"viability, T/C","second compound 1 µM, first compound 0.003 µM",5.68%
same,"viability, T/C","second compound 1 µM, first compound 0.00949 µM",2.71%
same,"viability, T/C","second compound 1 µM, first compound 0.03 µM",2.61%
same,"viability, T/C","second compound 1 µM, first compound 0.0949 µM",1.69%
same,"viability, T/C","second compound 1 µM, first compound 0.3 µM",1.84%
same,"viability, T/C","second compound 3.16 µM, first compound 0.000949 µM",21.1%
same,"viability, T/C","second compound 3.16 µM, first compound 0.003 µM",6.77%
same,"viability, T/C","second compound 3.16 µM, first compound 0.00949 µM",2.56%
same,"viability, T/C","second compound 3.16 µM, first compound 0.03 µM",1.42%
same,"viability, T/C","second compound 3.16 µM, first compound 0.0949 µM",1.44%
same,"viability, T/C","second compound 3.16 µM, first compound 0.3 µM",1.95%
same,"viability, T/C","second compound 10 µM, first compound 0.000949 µM",23.2%
same,"viability, T/C","second compound 10 µM, first compound 0.003 µM",6.76%
same,"viability, T/C","second compound 10 µM, first compound 0.00949 µM",2.77%
same,"viability, T/C","second compound 10 µM, first compound 0.03 µM",1.65%
same,"viability, T/C","second compound 10 µM, first compound 0.0949 µM",1.33%
same,"viability, T/C","second compound 10 µM, first compound 0.3 µM",1.68%
Nc1ccccc1NC(=O)c1ccc(CNC(=O)OCc2cccnc2)cc1 + CC(CO)NC(=O)c1cc(-c2ccc(Cl)cc2)nn(-c2cnn(C)c2)c1=O,IC50,second compound 0.1 µM,0.873 µM
same,IC50,second compound 0.316 µM,1.05 µM
same,IC50,second compound 1 µM,1.06 µM
same,IC50,second compound 3.16 µM,1 µM
same,IC50,second compound 10 µM,0.438 µM
same,"viability, T/C","second compound 0.1 µM, first compound 0.0316 µM",82.8%
same,"viability, T/C","second compound 0.1 µM, first compound 0.1 µM",110%
same,"viability, T/C","second compound 0.1 µM, first compound 0.316 µM",73.4%
same,"viability, T/C","second compound 0.1 µM, first compound 1 µM",45.7%
same,"viability, T/C","second compound 0.1 µM, first compound 3.16 µM",23.3%
same,"viability, T/C","second compound 0.1 µM, first compound 10 µM",7.92%
same,"viability, T/C","second compound 0.316 µM, first compound 0.0316 µM",114%
same,"viability, T/C","second compound 0.316 µM, first compound 0.1 µM",98.5%
same,"viability, T/C","second compound 0.316 µM, first compound 0.316 µM",81.7%
same,"viability, T/C","second compound 0.316 µM, first compound 1 µM",51.4%
same,"viability, T/C","second compound 0.316 µM, first compound 3.16 µM",22.7%
same,"viability, T/C","second compound 0.316 µM, first compound 10 µM",6.83%
same,"viability, T/C","second compound 1 µM, first compound 0.0316 µM",104%
same,"viability, T/C","second compound 1 µM, first compound 0.1 µM",104%
same,"viability, T/C","second compound 1 µM, first compound 0.316 µM",80.9%
same,"viability, T/C","second compound 1 µM, first compound 1 µM",50.8%
same,"viability, T/C","second compound 1 µM, first compound 3.16 µM",23.9%
same,"viability, T/C","second compound 1 µM, first compound 10 µM",7.01%
same,"viability, T/C","second compound 3.16 µM, first compound 0.0316 µM",79.5%
same,"viability, T/C","second compound 3.16 µM, first compound 0.1 µM",104%
same,"viability, T/C","second compound 3.16 µM, first compound 0.316 µM",65.4%
same,"viability, T/C","second compound 3.16 µM, first compound 1 µM",52.9%
same,"viability, T/C","second compound 3.16 µM, first compound 3.16 µM",22.1%
same,"viability, T/C","second compound 3.16 µM, first compound 10 µM",7.39%
same,"viability, T/C","second compound 10 µM, first compound 0.0316 µM",54.1%
same,"viability, T/C","second compound 10 µM, first compound 0.1 µM",68.4%
same,"viability, T/C","second compound 10 µM, first compound 0.316 µM",50.7%
same,"viability, T/C","second compound 10 µM, first compound 1 µM",39.8%
same,"viability, T/C","second compound 10 µM, first compound 3.16 µM",18.8%
same,"viability, T/C","second compound 10 µM, first compound 10 µM",5.36%
